From patent US11279736B2, “Conformationally-preorganized, MiniPEG-containing gamma-peptide nucleic acids” (CARNEGIE MELLON UNIVERSITY, priority 2011, dated 2022)
pKd: −log10 of the molar value. Like-named read-outs stand apart in the source and are kept apart here. Marks after values point to notes of the source that are not given here. [RMPγPNA-N] = PNA unit with R-MP-gamma backbone modification (N: the base)

Experiments:
[1] = Water solubility, saturated concentration by UV-spectroscopy; assay type: physicochemical; details: saturated solution in water
Procedure: To determine whether inclusion of miniPEG in the backbone of a Formula I PNA has an effect on water solubility of the resultant oligomer, saturating concentrations of PNA6 through 10 (Table 1) were prepared in water and the concentrations of each solution was measured by UV-spectroscopy. The incorporation of a single MP unit enhances the solubility of PNA6 by nearly 2-fold (Table 5). The solubility of the oligomers is further improved, albeit to a smaller extent, with additional MP units.

[2] = tested on: DNA fragment, 171 bp in length (no complementary sequence); test: Non-denaturing gel-shift assay for non-specific (off-target) binding
Procedure: FIG. 6 illustrates the results of a non-denaturing gel-shift assay that was aimed at evaluating the extent of non-specific binding for an unmodified PNA oligomer (PNA6) and a oligomer containing the inventive R-MP-γPNA monomer (PNA10).
To assess the extent of off-target binding of PNA and ^R-MPγPNA, a gel-shift assay is performed. In this case, a DNA fragment, 171 bp in length, is incubated with different concentrations of PNA6 and PNA10 (Table 1) in 10 mM sodium phosphate buffer at 37° C. for 16 hr. The two oligomers contain identical nucleobase sequence but differ from another at the γ-backbone. PNA6 is unmodified, whereas PNA10 is modified at every other position with R-MP-γ side-chain. Following incubation, the samples are separated on non-denaturing polyacrylamide gel and stained with SYBR-Gold.

[3] = tested on: complementary DNA strand; test: UV-melting / van't Hoff analysis of PNA-DNA hybrid duplexes; assay type: binding; details: PNA-DNA duplex, 298 K; for pKd: UV melting; for −ΔG° / −ΔH° / −ΔTS°: averages of three trials
Procedure: (§1) FIGS. 2A-2B illustrate UV-melting profiles of PNA-DNA (FIG. 2A) and PNA-RNA (FIG. 2B) hybrid duplexes at a strand concentration of […] each in 10 mM sodium phosphate buffer at pH 7.4. While both the heating and cooling runs were performed because they both have nearly identical profiles UV-melting for only the heating runs are shown.
UV-melting experiments were performed to determine the effect of MP on the thermal stability of PNA oligomers following hybridization to DNA or an RNA. FIG. 3A illustrates that the incorporation of a single miniPEG side-chain stabilized a PNA-DNA duplex by 4° C. […] However, increase in thermal stability tapers off to a value of about 2.3° C. per unit for the fully-modified oligomer, that is an oligomer made up of R-MP-γPNA groups only (e.g., PNA5).
(§2) Further insights related to the contribution of miniPEG to the stability of the PNA-DNA duplex was obtained from van′t Hoff analysis. Data in Table 2 show the thermodynamic parameters associated with hybridization of PNA1 through 5 to a complementary DNA or RNA strand.

[4] = tested on: immobilized complementary DNA; test: Surface plasmon resonance (SPR) hybridization kinetics; assay type: binding; details: for association rate constant ka / dissociation rate constant kd / pKd: SPR; for association rate constant ka / dissociation rate constant kd: 1:1 binding model; for dissociation rate constant kd: † values approach limits of detection
Procedure: FIG. 4 illustrates surface plamon resonance (SPR) sensorgrams (solid black lines) and fits (dotted lines) for hybridization of PNA probes to immobilized complementary DNA. Solutions contained 30 nM PNA. Error bars at t=420 sec illustrate standard deviations for three separate trials.
Surface plasmon resonance (SPR) analysis is used to study the hybridization kinetics of ^R-MPγPNA-DNA and ^R-MPγPNA-RNA duplexes. Briefly, SPR was performed as follows. According to one embodiment, the PNA probe was immobilized to the chip while the DNA target was captured from solution. In another embodiment, a biotinylated version of the DNA target is immobilized on a streptavidin-conjugated, carboxymethylated dextran chip at a relatively low surface density (ca. 100 response units) of DNA targets to limit mass transport effects on the association kinetics. Solutions containing 10-50 nM PNA oligomers are allowed to flow over the chip for about 420 seconds, at which point the flow is switched to a PNA-free buffer to allow net dissociation of the hybridized PNA.

[5] = tested on: complementary RNA strand; test: UV-melting / van't Hoff analysis of PNA-RNA hybrid duplexes; assay type: binding
Procedure: as §1
A similar pattern is observed for a R-MP-γPNA-RNA duplex, but the observed increase in thermal stability is lower for a R-MP-γPNA-RNA duplex as compared to a R-MP-γPNA-DNA duplex (FIG. 3B). The enhancement in thermal stability of a R-MP-γPNA-RNA duplex is only 3° C. for the first R-MP-γPNA-monomer that is incorporated into the PNA oligomer and this gain in thermal stability reduces to about 1.2° C. per R-MP-γPNA monomer for an oligomer made entirely R-MP-γPNA (PNA5). In contrast the gain in thermal stability is about 2.3° C./unit for R-MP-γPNA-DNA duplexes.
as §2

[6] = tested on: DNA: 3′-[…]-5, X = A, C, G, T (SEQ ID NO: 11); details: PNA-DNA, cited from earlier work
[7] = tested on: RNA: 3′-CGUACAXACU-5, X = A, C, G, U (SEQ ID NO: 12); details: PNA-RNA, cited from earlier work
[8] = ratio of dissociation and association rate constants, † values uncertain, read-out: equilibrium dissociation constant Kd
[9] = PNA-RNA duplex, 298 K, UV-melting curve fitting
[10] = range over mismatches, earlier study

Row | Substance | Sat. conc. [1] [mM] | pKd [3] | −ΔG° [3] [kcal/mol] | −ΔH° [3] [kcal/mol] | −ΔTS° [3] [kcal/mol] | association rate constant ka [4] [M⁻¹ s⁻¹] | dissociation rate constant kd [4] | pKd [4, 8] | −ΔG° [5, 9] [kcal/mol] | −ΔH° [5, 9] [kcal/mol] | −ΔTS° [5, 9] [kcal/mol] | further results
1 | H-ACGGGTAGAATAACAT-NH2 [PNA10] (PNA; 8 R-MP-gamma units; C-terminal amide; modified_base (2)..(2) R-MP-gamma-backbone modified nucleotide; modified_base (4)..(4) R-MP-gamma-backbone modified nucleotide; modified_base (6)..(6) R-MP-gamma-backbone modified nucleotide; modified_base (8)..(8) R-MP-gamma-backbone modified nucleotide; modified_base (10)..(10) R-MP-gamma-backbone modified nucleotide; modified_base (12)..(12) R-MP-gamma-backbone modified nucleotide; modified_bas) | >500 | – | – | – | – | – | – | – | – | – | – | intensity of the DNA bands ([2]; up to 20 μM (PNA/DNA ratio of 50:1)): remained fairly constant
2 | H-GCATGTTTGA-NH2 [PNA4] (PNA; 5 R-MP-gamma units; C-terminal amide; modified_base (2)..(2) R-MP-gamma-backbone modified nucleotide; modified_base (4)..(4) R-MP-gamma-backbone modified nucleotide; modified_base (6)..(6) R-MP-gamma-backbone modified nucleotide; modified_base (8)..(8) R-MP-gamma-backbone modified nucleotide; modified_base (10)..(10) R-MP-gamma-backbone modified nucleotide) | – | 11.46 | 15.5 ± 0.24 | 78.6 ± 3.35 | 63.3 ± 2.87 | 660000 | 0.3 × 10^−4 ^† s^−1 | 10.39 | 17.4 | 85.1 | 67.6 | SPR-derived Kd relative to Kd determined by UV melting experiments ([4]; Table 3 versus Table 2, DNA target): 12 fold
3 | H-GCATGTTTGA-NH2 [PNA1] (all peptide nucleic acid (PNA); C-terminal amide) | – | 8.60 | 11.7 ± 0.24 | 65.2 ± 1.2 | 53.5 ± 1.2 | 470000 | 0.0013 s⁻¹ | – | 14.3 | 69.1 | 54.7 | pKd ([4]; read-out: Kd): 8.55; Tm ([6]; C<>T mismatch): 31 °C; ΔTm between the perfect match and mismatch ([6]; C<>T mismatch): (−14)^† ° C.; Tm ([6]; G<>T mismatch): 31 °C; ΔTm between the perfect match and mismatch ([6]; G<>T mismatch): (−14) ° C.; Tm ([6]; T(U)<>T mismatch): 35 °C; ΔTm between the perfect match and mismatch ([6]; T(U)<>T mismatch): (−10) ° C.; Tm ([6]; X = A (A-T perfect match)): 45 °C; ΔTm, single-base mismatch (X=C, G, T) [6, 10]: −10 to −14 °C; pKd [5, 9]: 10.46; differential Tm (ΔTm), RNA versus DNA binding ([5]; duplex with RNA compared to duplex with DNA): 10 °C; Tm ([7]; C<>T mismatch): 37 °C; ΔTm between the perfect match and mismatch ([7]; C<>T mismatch): (−18) ° C.; Tm ([7]; G<>T mismatch): 44 °C; ΔTm between the perfect match and mismatch ([7]; G<>T mismatch): (−11) ° C.; Tm ([7]; T(U)<>T mismatch): 40 °C; ΔTm between the perfect match and mismatch ([7]; T(U)<>T mismatch): (−15) ° C.; Tm ([7]; X = A (A-T perfect match)): 55 °C; ΔTm, single-base mismatch (X=C, G, T) [7, 10]: −11 to −18 °C
4 | H-ACGGGTAGAATAACAT-NH2 [PNA8] (PNA; 3 R-MP-gamma units; C-terminal amide; modified_base (1)..(1) R-MP-gamma-backbone modified nucleotide; modified_base (8)..(8) R-MP-gamma-backbone modified nucleotide; modified_base (15)..(15) R-MP-gamma-backbone modified nucleotide) | 108 | – | – | – | – | – | – | – | – | – | – | –
5 | H-ACGGGTAGAATAACAT-NH2 [PNA9] (PNA; 5 R-MP-gamma units; C-terminal amide; modified_base (3)..(3) R-MP-gamma-backbone modified nucleotide; modified_base (6)..(6) R-MP-gamma-backbone modified nucleotide; modified_base (9)..(9) R-MP-gamma-backbone modified nucleotide; modified_base (12)..(12) R-MP-gamma-backbone modified nucleotide; modified_base (15)..(15) R-MP-gamma-backbone modified nucleotide) | 350 | – | – | – | – | – | – | – | – | – | – | –
6 | H-GCATGTTTGA-NH2 [PNA3] (PNA; 3 R-MP-gamma units; C-terminal amide; modified_base (4)..(4) R-MP-gamma-backbone modified nucleotide; modified_base (6)..(6) R-MP-gamma-backbone modified nucleotide; modified_base (8)..(8) R-MP-gamma-backbone modified nucleotide) | – | 10.29 | 14.1 ± 0.24 | 75.5 ± 2.63 | 61.2 ± 2.63 | 620000 | 0.00019 s⁻¹ | 9.52 | 17 | 83.7 | 66.9 | –
7 | H-ACGGGTAGAATAACAT-NH2 [PNA6] (all peptide nucleic acid (PNA); PNA oligomer with free N-terminus and C-terminal amide) | 39 | – | – | – | – | – | – | – | – | – | – | intensity of the DNA band ([2]; 10 μM (PNA/DNA ratio of 25:1) or higher): completely disappeared; intensity of the DNA band ([2]; increasing concentrations of oligomer, 37° C., 16 hr): drastic reduction
8 | H-GCATGTTTGA-NH2 (all [RMPγPNA-N], methylation of C not given here; C-terminal amide) [PNA5] | – | – | – | – | – | – | – | 10.27 | – | – | – | –
9 | H-ACGGGTAGAATAACAT-NH2 [PNA7] (PNA; 1 R-MP-gamma unit; C-terminal amide; modified_base (8)..(8) R-MP-gamma-backbone modified nucleotide) | 76 | – | – | – | – | – | – | – | – | – | – | –
